Experimental data published in patent US20050170485A1, “Culture having phenol oxidase-like activity” (priority 2002, published 2005).

Assays:
Assay type in all cases: biochemical
[1] = tested on: culture of Flammulina velutipes strain IFO 30601; assay: Oxidative coupling reaction with 4-aminoantipyrine by the culture; conditions: for Specific Activity, Culture (oxidative coupling with 4-aminoantipyrine): reaction pH 7.0, 25° C., substrate 2.0 mM; for activity of the culture for the substrate in words, oxidative coupling reaction: pH 7.0
Experimental: Next, the oxidative coupling reaction of the culture obtained in (2) in Example 1 mentioned above was determined by using color development as an index by the oxidative condensation of the substrate (hydrogen donor) with 4-aminoantipyrine, catalyzed by the culture of the present invention.
As the hydrogen donors, there were used phenolic compounds (phenol, 2-methoxyphenol, 2,6-dimethoxyphenol, catechol, resorcinol, hydroquinone, pyrogallol, gallic acid, propyl gallate, 1-naphthol, catechin), aminophenolic compounds (o-aminophenol, m-aminophenol, p-aminophenol), diaminophenolic compounds (o-phenylenediamine, m-phenylenediamine, p-phenylenediamine), and heterocyclic compounds (5-hydroxyindole, 2,6-diaminopyridine).
The above-mentioned culture solution was added to a reaction system containing 4-aminoantipyrine and an optional hydrogen donor. Thereafter, the activity of the culture of the present invention was assayed by determining a change in absorbance at 490 nm for the phenolic compound, the diaminophenolic compound and the heterocyclic compound, or determining a change in absorbance at 450 nm for the aminophenolic compound. As to a substrate hardly soluble in water, there was used one obtained by dissolving the substrate in a small amount of dimethyl sulfoxide and diluting the resulting solution with deionized water to a desired concentration. In Table 4, DMSO is an abbreviation for dimethyl sulfoxide.
(§1) Concretely, 190 μl of 105.3 mM phosphate buffer (pH 7.0) containing 0.4 μmol of a substrate and 4.0 μmol of 4-aminoantipyrine was pre-incubated in wells of a 96-well microplate [manufactured by Corning, Costor (registered trademark) 3368] at 25° C. for 1 minute. Next, 10 μl of the above-mentioned culture solution was added to the resulting mixture, and thereafter, the mixture was incubated for 1 hour. A change in absorbance at 490 nm or 450 nm was determined for the resulting product. One unit (U) of the activity regarding the oxidative coupling reaction was defined as an amount for increasing the absorbance by 1 per one minute.

[2] = tested on: laccase from Japanese lacquer; assay: Direct oxidation reaction by laccase (comparison); conditions: reaction pH 7.0; 2-chloro 1,4-phenylenediamine = 100
Experimental: (§2) Next, 20 μl of the above-mentioned culture solution was added to the resulting mixture. A change in absorbance at 490 nm, 450 nm or 405 nm was determined for the resulting product, depending on the substrate. Here, 1 U (unit) of the activity regarding the direct oxidative reaction was defined as an amount for increasing the absorbance by 1 per one minute.
(§3) In addition, for the comparison, the substrate specificities at pH 7.0 for laccase from Japanese lacquer and bilirubin oxidase from the strain belonging to the genus Myrothecium were also examined in the same manner.

[3] = target: T1, bilirubin oxidase from the strain of the genus Myrothecium (Albifimbria verrucaria, UniProt Q12737); assay: Oxidative coupling reaction with 4-aminoantipyrine by bilirubin oxidase (comparison); conditions: reaction pH 8.0, substrate 2.0 mM
T1 sequence (Q12737 39-572): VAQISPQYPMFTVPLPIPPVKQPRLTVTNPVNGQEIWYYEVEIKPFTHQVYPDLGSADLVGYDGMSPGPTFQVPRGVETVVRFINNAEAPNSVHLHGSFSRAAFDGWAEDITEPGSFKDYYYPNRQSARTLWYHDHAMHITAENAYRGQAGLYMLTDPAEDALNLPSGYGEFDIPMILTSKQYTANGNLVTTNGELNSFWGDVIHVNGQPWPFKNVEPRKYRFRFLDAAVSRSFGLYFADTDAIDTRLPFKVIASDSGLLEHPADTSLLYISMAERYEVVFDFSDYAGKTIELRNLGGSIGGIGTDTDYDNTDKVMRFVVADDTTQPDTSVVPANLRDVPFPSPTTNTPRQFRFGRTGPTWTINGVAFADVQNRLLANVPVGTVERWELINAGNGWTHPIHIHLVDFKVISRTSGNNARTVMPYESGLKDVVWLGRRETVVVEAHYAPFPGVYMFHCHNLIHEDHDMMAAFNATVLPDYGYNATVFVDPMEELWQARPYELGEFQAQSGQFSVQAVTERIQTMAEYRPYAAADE
Experimental: as §1
In addition, for the comparison, the examination was made in the same manner for bilirubin oxidase from the strain of the genus Myrothecium except that the above-mentioned buffer was replaced with 105.3 mM Tris-HCl buffer (pH 8.0).

[4] = target: T2, bilirubin oxidase from the strain belonging to the genus Myrothecium (Albifimbria verrucaria, UniProt Q12737); assay: Direct oxidation reaction by bilirubin oxidase (comparison); parameters: concentration or dose not given beside the values; conditions: reaction pH 7.0; 2-chloro 1,4-phenylenediamine = 100
T2 sequence (Q12737 39-572): T1 sequence (Q12737 39-572)
Experimental: as §2, with “Concretely, 180 μl of 0.89 mM sodium phosphate buffer (pH 7.0) containing […] substrate was pre-incubated in wells of a 96-well microplate [manufactured by Corning, Costor (registered trademark) 3368] at 25° C. for 1 minute. Next,” for “Next,”
as §3
The relative activity (%) for each substrate is shown in Table 7, in which the measured value for a case where a representative chemical dye 2-chloro 1,4-phenylenediamine was used as a substrate is 100.

[5] = tested on: culture of Flammulina velutipes strain IFO 30601; assay: Direct oxidation reaction by the culture; conditions: for activity of the culture compared with bilirubin oxidase from the genus Myrothecium, direct oxidation / activity of the culture compared with laccase from Japanese lacquer, direct oxidation: pH 7.0, relative activities of Table 7; for Relative Activity, Culture (direct oxidation): reaction pH 7.0, 2-chloro 1,4-phenylenediamine = 100; for activity of the culture for the substrate in words, direct oxidation reaction: pH 7.0
Experimental: Further, the direct oxidation reaction of the culture obtained in the above-mentioned example was determined by using color development due to oxidative polymerization of a substrate generated by the direct action of the culture of the present invention on the substrate as an index.
As the substrates, there were used diaminophenolic compounds (2-chloro 1,4-phenylenediamine, p-phenylenediamine, 2,5-diaminotoluene, N-phenyl-p-phenylenediamine, toluylene-3,4-diamine, m-phenylenediamine), aminophenolic compounds (o-aminophenol, m-aminophenol, 5-amino-o-cresol, p-aminophenol, p-methylaminophenol), and phenolic compounds (2,6-dimethoxyphenol, catechol, resorcinol, hydroquinone, pyrogallol, gallic acid, propyl gallate, 1-naphthol, […], 2,3,4-trihydroxybenzophenone, 2,3,4,4-tetrahydroxybenzophenone). As to a substrate hardly soluble in water, there was used one obtained by dissolving the substrate in a small amount of dimethyl sulfoxide and diluting the resulting solution with deionized distilled water to a desired concentration. In Table 6, %” indicates volume/volume %.
as §2, with “Concretely, 180 μl of 0.89 mM sodium phosphate buffer (pH 7.0) containing […] substrate was pre-incubated in wells of a 96-well microplate [manufactured by Corning, Costor (registered trademark) 3368] at 25° C. for 1 minute. Next,” for “Next,”

Compound | Specific Activity, Culture (oxidative coupling with 4-aminoantipyrine) [1] [U/mg Protein] | Relative Activity, Laccase from Japanese Lacquer (direct oxidation) [2] [%] | Specific Activity, Bilirubin Oxidase from Strain Belonging to Genus Myrothecium (oxidative coupling with 4-aminoantipyrine) [3] [U/mg Protein] | Relative Activity, Bilirubin Oxidase from Strain Belonging to Genus Myrothecium (direct oxidation) [4] [%] | activity of the culture compared with bilirubin oxidase from the genus Myrothecium, direct oxidation [5] | activity of the culture compared with laccase from Japanese lacquer, direct oxidation [5] | Relative Activity, Culture (direct oxidation) [5] [%] | activity of the culture for the substrate in words, oxidative coupling reaction [1] | activity of the culture for the substrate in words, direct oxidation reaction [5] | activity of the culture for the substrate in words, direct oxidation reaction ([5]; listed as 2,3,4,4-tetrahydrobenzophenone)
Nc1cccc(O)c1 [m-Aminophenol] | 8.8 | 3 | 1.3 | 3 | even higher activity | even higher activity | 40 |  |  | 
Oc1ccccc1 [Phenol] | 8.1 |  | 0.9 |  |  |  |  |  |  | 
Nc1cccc(N)n1 [2,6-Diaminopyridine] | 37.7 |  | 2.3 |  |  |  |  | high activity |  | 
Cc1cc(N)ccc1N [2,5-Diaminotoluene] |  | 44 |  | 24 | higher activity |  | 80 |  |  | 
O=C(c1ccc(O)cc1)c1ccc(O)c(O)c1O [2,3,4,4-Tetrahydroxybenzophenone] |  | 179 |  | 52 | even higher activity | higher activity | 571 |  | high activity | especially high activity
CCCOC(=O)c1cc(O)c(O)c(O)c1 [Propyl Gallate] | −0.2 | 14 | −0.1 | 85 | higher activity | higher activity | 34 |  |  | 
Cc1ccc(N)cc1O [5-Amino-o-cresol] |  | 1 |  | 19 | even higher activity | even higher activity | 117 |  |  | 
Oc1cccc(O)c1O [Pyrogallol] | 3.2 | 187 | −27.6 | 104 |  |  | 184 |  | high activity | 
O=C(c1ccccc1)c1ccc(O)c(O)c1O [2,3,4-Trihydroxybenzophenone] |  | 175 |  | 62 | even higher activity | higher activity | 537 |  | especially high activity | 
Oc1ccc2[nH]ccc2c1 [5-Hydroxyindole] | 4.7 |  | 1.9 |  |  |  |  |  |  | 
Nc1ccc(N)c(Cl)c1 [2-Chloro 1,4-phenylenediamine] |  | 100 |  | 100 |  |  | 100 |  |  | 
Nc1ccc(Nc2ccccc2)cc1 [N-Phenyl-p-phenylenediamine] |  | 94 |  | 102 |  |  | 174 |  | especially high activity | 
Nc1ccccc1N [o-Phenylenediamine] | 15.1 |  | 4.5 |  |  |  |  |  |  | 
Catechin | 14.0 |  | 4.6 |  |  |  |  | especially high activity |  | 
Cc1ccc(N)c(N)c1 [Toluylene-3,4-diamine] |  | 61 |  | 45 | higher activity |  | 120 |  |  | 
C1=CCC2=CC=CCC2=C1 [1,5-Dihydronaphthalene] |  | 47 |  | 69 |  |  | 63 |  |  | 
CNc1ccc(O)cc1 [p-Methylaminophenol] |  | 308 |  | 122 | higher activity |  | 304 |  | especially high activity | 
